Patent US12029738B2, “Antiproliferative compounds and methods of use thereof” (Celgene Corporation, priority 2017, dated 2024)

Tests used:
[1] = test system: MM cell lines (NCI-H929, NCI-H929-1051, OPM2, OPM2-P10); test: Cell proliferation assay (CTG, 120 h), four cell lines together; assay type: cell-based; details: Homo sapiens, range over four cell lines and both compounds, read-out: antiproliferative IC50 values (range)
Experimental: Cell Culture Materials: Human multiple myeloma cell lines were purchased from the vendors and cultured at 37° C. with 5% CO2 in the media as indicated in Table 1. Lenalidomide and pomalidomide resistant cell lines were obtained by methods as generally described previously (Lopez-Girona et al Leukemia 2012; 26(11): 2335). All cell lines were kept in log phase, and cell density and viability were monitored by trypan blue exclusion using the Vi-cell XR cell viability analyzer (Beckman Coulter, Brea, CA).
Preparation of Solutions of Test Article: Compounds were plated into black 384-well plates (Corning Inc.) to a final DMSO volume of 0.1% assuming a maximal volume of 50 μL. […]
Cell Proliferation Assays: The effect of compounds on the proliferation/viability of the hematological cell lines (Table 1), was assessed after 120 h incubation using CTG (Promega), according to manufacturer's instructions. […] At 120 h, 25 μL per well of CTG was dispensed by a Multidrop Combi Reagent Dispenser and adenosine triphosphate (ATP) release by viable cells was measured as relative luminescence units after 30 minutes using the Envision platform.
Results. […] Proliferation was assessed using the CellTitre-Glo© assay. […] The IC50 for inhibition of cell growth by the compounds was determined for each cell line using ActivityBase software.

in vivo = details: male, CD-IGS, rat, po
Experimental: 7-Day Exploratory Toxicology Studies in Male Rats. Methods. Male CD-IGS rats (n=5/group for toxicologic assessment; n=4/group for toxicokinetic assessment) were dosed once daily by oral gavage (10 mL/kg) with vehicle (0.5% HPMC/0.25% Tween-80 in 50 mM citrate, pH 2.6-2.8) or test articles (Compound A or Compound 1) at 100, 300 or 1000 mg/kg/day for 7 consecutive days. Blood samples for toxicokinetics were collected on Days 1 and 7. […] Body weight was recorded at randomization, prior to dosing on Days 1-7 and prior to necropsy. Samples for hematology and serum chemistry analyses were collected on Day 8, approximately 24 h after the last dose. Rats were euthanized on Day 8 for necropsy. Anatomic pathology evaluation consisted of gross observation, organ weight and histopathologic examination of select tissues.

KMS-12-PE = test: Flow cytometry proliferation/apoptosis assay (120 h); assay type: cell-based, human; details: for IC50: Homo sapiens, read-out: Antiproliferative Activity (Flow Cytometry) IC50; for induced apoptosis AUC (area under the dose response curve): scale 0-10000
Experimental: (§1) Methods. […] Twenty MM cell lines (Table 7 and 8) (including the plasma cell leukemia (PCL) cell lines L363, JJN-3, ARH-77, and SKMM-2) were treated in duplicate with escalating concentrations of Compound 2 or pomalidomide, ranging from 0.015 to 100 nM. Using 5 mM stocks, compounds were pre-spotted into the appropriate wells of 96-well plates using a Hewlett-Packard D300 Digital Dispenser. Cells were added to 96-well plates using a Multidrop Combi Reagent Dispenser. After 5 days of treatment, flow cytometric analysis was used to determine the number of cells that were alive, dead, or apoptotic. After 5 days of treatment, cells were incubated with annexin V to stain exposed phosphatidylserine, an apoptotic cell-surface marker, and the vital dye 7-AAD, which is excluded from cells with intact cell membranes, and analyzed by flow cytometry (Attune®, Thermo Fisher). Analysis was then performed to determine the number of live cells (annexin V and 7-AAD double negative staining cells) and the percentage of apoptotic cells (annexin V positive cells) for each condition, relative to the DMSO control treated, was calculated. All described values were normalized to DMSO-only treated cells. All proliferation and apoptosis induction curves were processed and graphed as percent of control using XLFit (IDBS, Alameda, CA) and GraphPad Prism 7.03 (GraphPad Software, La Jolla, CA). The live cell count for every concentration was normalized to the DMSO control (considered as 100%) in Microsoft Excel to generate the proliferation curves. […] Similarly, for apoptosis analysis, the percentage of drug-induced apoptosis was calculated for all doses by combining both “early” (annexin V positive and 7-AAD negative) and “late” apoptosis (annexin V and 7-AAD positive) values and subtracting background values (cell treated with vehicle control DMSO). The AUC values for apoptosis curves were calculated by performing area under curve analysis on GraphPad Prism 7.03. The area under the dose-response curve (AUC) was calculated since it integrates potency and efficacy of the drugs to represent apoptosis into a single parameter. The IC50 values for Compound 2 and pomalidomide in the flow cytometry assays are presented Table 9.
(§2) The apoptosis induction effect of Compound 2 was assessed using flow cytometry after 120 h of treatment and compared with pomalidomide treatment. […] Each data point represents 2 independent experiments with at least two samples in each experiment. (Table 10).

OPM2 = test: as above; assay type: cell-based, human; details: for IC50: Homo sapiens, OPM-2, read-out: Antiproliferative Activity (Flow Cytometry) IC50; for induced apoptosis AUC (area under the dose response curve): scale 0-10000
Experimental: as §1, §2

LP-1 = test: as above; assay type: cell-based, human; details: for IC50: Homo sapiens, read-out: Antiproliferative Activity (Flow Cytometry) IC50; for induced apoptosis AUC (area under the dose response curve): scale 0-10000
Experimental: as §1, §2

MM1-S = test: as above; assay type: cell-based, human; details: for IC50: Homo sapiens, MM1-S, read-out: Antiproliferative Activity (Flow Cytometry) IC50; for induced apoptosis AUC (area under the dose response curve): MM1.S, 10000 = complete induction at all doses, 0 = none
Experimental: as §1, §2

DF15 = test: as above; assay type: cell-based, human; details: for IC50: Homo sapiens, read-out: Antiproliferative Activity (Flow Cytometry) IC50; for induced apoptosis AUC (area under the dose response curve): scale 0-10000
Experimental: as §1, §2

NCI-H929 = test: as above; assay type: cell-based, human; details: for IC50: Homo sapiens, read-out: Antiproliferative Activity (Flow Cytometry) IC50; for induced apoptosis AUC (area under the dose response curve): scale 0-10000
Experimental: as §1, §2

ANBL-6 = test: as above; assay type: cell-based, human; details: for IC50: Homo sapiens, read-out: Antiproliferative Activity (Flow Cytometry) IC50; for induced apoptosis AUC (area under the dose response curve): scale 0-10000
Experimental: as §1, §2

[2] = test system: lenalidomide-resistant NCI-H929 (H929-1051) multiple myeloma/plasmacytoma tumors; test: H929-1051 xenograft, Compound 2 alone and with dexamethasone; assay type: in vivo, mouse

SMILES	IC50 [1] [nM]	IC50 (KMS-12-PE) [nM]	induced apoptosis AUC (area under the dose response curve) (KMS-12-PE)	IC50 (OPM2) [nM]	induced apoptosis AUC (area under the dose response curve) (OPM2)	IC50 (LP-1) [nM]	induced apoptosis AUC (area under the dose response curve) (LP-1)	IC50 (MM1-S) [nM]	induced apoptosis AUC (area under the dose response curve) (MM1-S)	IC50 (DF15) [nM]	induced apoptosis AUC (area under the dose response curve) (DF15)	IC50 (NCI-H929) [nM]	induced apoptosis AUC (area under the dose response curve) (NCI-H929)	IC50 (ANBL-6) [nM]	induced apoptosis AUC (area under the dose response curve) (ANBL-6)	also measured
N#Cc1ccc(N2CCN(Cc3ccc(COc4cccc5c4CN(C4CCC(=O)NC4=O)C5=O)cc3)CC2)c(F)c1 (racemic) [Compound 1, 4-(4-(4-(((2-(2,6-dioxopiperidin-3-yl)-1-oxoisoindolin-4-yl)oxy)methyl)benzyl)piperazin-1-yl)-3-fluorobenzonitrile]	0.07 to 19															AUC(0-t) (in vivo; 100 mg/kg/day): 143 µM·h; AUC(0-t) (in vivo; 300 mg/kg/day): 514 µM·h; AUC(0-t) (in vivo; 1000 mg/kg/day): 1220 µM·h; dose at which minimal decreases in body weight gain were observed (in vivo; 7 days): ≥ 300 mg/kg
N#Cc1ccc(N2CCN(Cc3ccc(COc4cccc5c4CN([C@H]4CCC(=O)NC4=O)C5=O)cc3)CC2)c(F)c1 [Compound 2, (S)-4-(4-(4-(((2-(2,6-dioxopiperidin-3-yl)-1-oxoisoindolin-4-yl)oxy)methyl)benzyl)piperazin-1-yl)-3-fluorobenzonitrile]	0.07 to 19	0.09	2017	0.05	5620	0.14	630.7	0.04	5701	0.05	6002	0.05	6089	0.06	4751	combination antitumor activity (fractional product method) ([2]; Compound 2 0.1 mg/kg and dexamethasone 0.5 mg/kg): synergistic; tumor volume reduction (TVR) ([2]; Compound 2 0.1 mg/kg in combination with dexamethasone 0.5 mg/kg): 84%; tumor growth inhibition / tumor volume reduction (TVR) ([2]; single agent Compound 2 0.1 mg/kg oral once daily): 34%
Nc1cccc2c1C(=O)N(C1CCC(=O)NC1=O)C2=O (stereo not shown) [Pomalidomide, pomalidomide]		83.8	1069	69.7	3298	176	174	33.7	3525	41	3707	63.1	2115	60.6	2580	
